In patent US20230220063A1, “IL-1BETA BINDING ANTIBODIES FOR USE IN TREATING CANCER” (NOVARTIS AG, priority 2017, published 2023):

Tested on: incident cancers in post-myocardial infarction patients with hsCRP ≥2 mg/L
Test: CANTOS trial: incident cancers, cancer mortality, canakinumab vs placebo
Assay type: in vivo, human

**Q.** “canakinumab: high-affinity, fully human monoclonal antibody of the IgG1/k to interleukin-1β; INN number 8836” was tested. Which “Central Nervous System, incidence rate (number)” value (300 mg SC q 3 months) did it give?
**A.** 0.03(3) per 100 person years

**Q.** And the “Endocrine: Adrenal, incidence rate (number)” value (300 mg SC q 3 months)?
**A.** 0.01(1) per 100 person years

**Q.** And the “Endocrine: Thyroid, incidence rate (number)” value (300 mg SC q 3 months)?
**A.** 0.01(1) per 100 person years

**Q.** What about the “Gastrointenstinal: Appendiceal, incidence rate (number)” value (300 mg SC q 3 months) of the same substance?
**A.** 0.01(1) per 100 person years

**Q.** What about the “Gastrointenstinal: Biliary, incidence rate (number)” value (300 mg SC q 3 months) of the same substance?
**A.** 0 per 100 person years

**Q.** What about the “Gastrointenstinal: Colorectal, incidence rate (number)” value (300 mg SC q 3 months) of the same substance?
**A.** 0.21(18) per 100 person years

**Q.** What about the “Gastrointenstinal: Esophageal, incidence rate (number)” value (300 mg SC q 3 months) of the same substance?
**A.** 0.08(7) per 100 person years

**Q.** And the “Gastrointenstinal: Gastric, incidence rate (number)” value (300 mg SC q 3 months)?
**A.** 0.06(5) per 100 person years

**Q.** And the “Gastrointenstinal: Oral cavity/tongue, incidence rate (number)” value (300 mg SC q 3 months)?
**A.** 0.02(2) per 100 person years

**Q.** And the “Gastrointenstinal: Pancreatic, incidence rate (number)” value (300 mg SC q 3 months)?
**A.** 0.06(5) per 100 person years

**Q.** And the “Genitourinary: Bladder, incidence rate (number)” value (300 mg SC q 3 months)?
**A.** 0.13(11) per 100 person years

**Q.** What about the “Genitourinary: Cervical, incidence rate (number)” value (300 mg SC q 3 months) of the same substance?
**A.** 0 per 100 person years

**Q.** And the “Genitourinary: Endometrial/Uterine, incidence rate (number)” value (300 mg SC q 3 months)?
**A.** 0.03(3) per 100 person years

**Q.** What about the “Genitourinary: Ovarian, incidence rate (number)” value (300 mg SC q 3 months) of the same substance?
**A.** 0 per 100 person years

**Q.** What about the “Genitourinary: Prostate, incidence rate (number)” value (300 mg SC q 3 months) of the same substance?
**A.** 0.17(15) per 100 person years

**Q.** What about the “Genitourinary: Testicular, incidence rate (number)” value (300 mg SC q 3 months) of the same substance?
**A.** 0 per 100 person years

**Q.** And the “Hematopoetic: Leukemia, incidence rate (number)” value (300 mg SC q 3 months)?
**A.** 0.01(1) per 100 person years

**Q.** What about the “Hematopoetic: Lymphoma, incidence rate (number)” value (300 mg SC q 3 months) of the same substance?
**A.** 0.07(6) per 100 person years

**Q.** And the “Hematopoetic: Multiple myeloma, incidence rate (number)” value (300 mg SC q 3 months)?
**A.** 0.02(2) per 100 person years

**Q.** And the “Kidney, incidence rate (number)” value (300 mg SC q 3 months)?
**A.** 0.07(6) per 100 person years

**Q.** What about the “Liver, incidence rate (number)” value (300 mg SC q 3 months) of the same substance?
**A.** 0.03(3) per 100 person years

**Q.** What about the “Lung Cancers: Adenocarcinoma or poorly differentiated large cell carcinoma or unspecified, incidence rate (number)” value (300 mg SC q 3 months) of the same substance?
**A.** 0.12 per 100 person years

**Q.** And the “Lung Cancers: Pleural cancer, incidence rate (number)” value (300 mg SC q 3 months)?
**A.** 0 per 100 person years

**Q.** And the “Lung Cancers: Small cell lung cancer, incidence rate (number)” value (300 mg SC q 3 months)?
**A.** 0.01 (1) per 100 person years

**Q.** And the “Lung Cancers: Squamous cell lung carcinoma, incidence rate (number)” value (300 mg SC q 3 months)?
**A.** 0.03 (3) per 100 person years

**Q.** And the “Other cancer sites: Other, incidence rate (number)” value (300 mg SC q 3 months)?
**A.** 0.02(2) per 100 person years

**Q.** And the “Sarcoma / Bone, incidence rate (number)” value (300 mg SC q 3 months)?
**A.** 0.01(1) per 100 person years

**Q.** What about the “Skin: Basal cell carcinoma, incidence rate (number)” value (300 mg SC q 3 months) of the same substance?
**A.** 0.21(18) per 100 person years

**Q.** What about the “Skin: Melanoma, incidence rate (number)” value (300 mg SC q 3 months) of the same substance?
**A.** 0.06(5) per 100 person years

**Q.** What about the “Skin: Other, incidence rate (number)” value (300 mg SC q 3 months) of the same substance?
**A.** 0.02(2) per 100 person years

**Q.** And the “Skin: Squamous cell skin cancer, incidence rate (number)” value (300 mg SC q 3 months)?
**A.** 0.27(23) per 100 person years

**Q.** And the “Lung Cancers: Adenocarcinoma or poorly differentiated large cell carcinoma or unspecified, incidence rate (number)” value (300 mg SC q 3 months, listed as Canakinumab)?
**A.** 0.12 (10) per 100 person years

**Q.** And the total cancer mortality (300 mg SC, vs placebo)?
**A.** fell by half

**Q.** What about the “Breast, incidence rate (number)” value (All Doses) of the same substance?
**A.** 0.06(16) per 100 person years

**Q.** And the “Central Nervous System, incidence rate (number)” value (All Doses)?
**A.** 0.04(10) per 100 person years

**Q.** What about the “Endocrine: Adrenal, incidence rate (number)” value (All Doses) of the same substance?
**A.** 0.01(2) per 100 person years

**Q.** And the “Endocrine: Thyroid, incidence rate (number)” value (All Doses)?
**A.** 0.02(4) per 100 person years

**Q.** And the “Gastrointenstinal: Appendiceal, incidence rate (number)” value (All Doses)?
**A.** 0.00(1) per 100 person years

**Q.** And the “Gastrointenstinal: Biliary, incidence rate (number)” value (All Doses)?
**A.** 0.02(5) per 100 person years

**Q.** And the “Gastrointenstinal: Colorectal, incidence rate (number)” value (All Doses)?
**A.** 0.21(54) per 100 person years

**Q.** And the “Gastrointenstinal: Esophageal, incidence rate (number)” value (All Doses)?
**A.** 0.06(16) per 100 person years

**Q.** And the “Gastrointenstinal: Gastric, incidence rate (number)” value (All Doses)?
**A.** 0.04(10) per 100 person years

**Q.** What about the “Gastrointenstinal: Oral cavity/tongue, incidence rate (number)” value (All Doses) of the same substance?
**A.** 0.03(8) per 100 person years

**Q.** And the “Gastrointenstinal: Pancreatic, incidence rate (number)” value (All Doses)?
**A.** 0.05(13) per 100 person years

**Q.** What about the “Genitourinary: Bladder, incidence rate (number)” value (All Doses) of the same substance?
**A.** 0.10(26) per 100 person years

**Q.** And the “Genitourinary: Cervical, incidence rate (number)” value (All Doses)?
**A.** 0.00(1) per 100 person years

**Q.** And the “Genitourinary: Endometrial/Uterine, incidence rate (number)” value (All Doses)?
**A.** 0.02(5) per 100 person years

**Q.** What about the “Genitourinary: Ovarian, incidence rate (number)” value (All Doses) of the same substance?
**A.** 0.00(1) per 100 person years

**Q.** What about the “Genitourinary: Prostate, incidence rate (number)” value (All Doses) of the same substance?
**A.** 0.17(44) per 100 person years

**Q.** And the “Genitourinary: Testicular, incidence rate (number)” value (All Doses)?
**A.** 0.00(1) per 100 person years

**Q.** What about the “Hematopoetic: Leukemia, incidence rate (number)” value (All Doses) of the same substance?
**A.** 0.02(4) per 100 person years

**Q.** What about the “Hematopoetic: Lymphoma, incidence rate (number)” value (All Doses) of the same substance?
**A.** 0.05(13) per 100 person years

**Q.** And the “Hematopoetic: Multiple myeloma, incidence rate (number)” value (All Doses)?
**A.** 0.01(2) per 100 person years

**Q.** What about the “Kidney, incidence rate (number)” value (All Doses) of the same substance?
**A.** 0.09(22) per 100 person years

**Q.** And the “Liver, incidence rate (number)” value (All Doses)?
**A.** 0.04(11) per 100 person years

**Q.** And the “Lung Cancers: Adenocarcinoma or poorly differentiated large cell carcinoma or unspecified, incidence rate (number)” value (All Doses)?
**A.** 0.23 (59) per 100 person years

**Q.** And the “Lung Cancers: Pleural cancer, incidence rate (number)” value (All Doses)?
**A.** 0 per 100 person years

**Q.** What about the “Lung Cancers: Small cell lung cancer, incidence rate (number)” value (All Doses) of the same substance?
**A.** 0.01 (3) per 100 person years

**Q.** And the “Lung Cancers: Squamous cell lung carcinoma, incidence rate (number)” value (All Doses)?
**A.** 0.02 (6) per 100 person years

**Q.** What about the “Other cancer sites: Other, incidence rate (number)” value (All Doses) of the same substance?
**A.** 0.05(13) per 100 person years

**Q.** And the “Sarcoma / Bone, incidence rate (number)” value (All Doses)?
**A.** 0.01(2) per 100 person years

**Q.** What about the “Skin: Basal cell carcinoma, incidence rate (number)” value (All Doses) of the same substance?
**A.** 0.26(65) per 100 person years

**Q.** What about the “Skin: Melanoma, incidence rate (number)” value (All Doses) of the same substance?
**A.** 0.06(16) per 100 person years

**Q.** And the “Skin: Other, incidence rate (number)” value (All Doses)?
**A.** 0.03(7) per 100 person years

**Q.** And the “Skin: Squamous cell skin cancer, incidence rate (number)” value (All Doses)?
**A.** 0.17(44) per 100 person years

**Q.** What about the “share of all cancers that were lung cancers” value (among those assigned to canakinumab (placebo 26.0%)) of the same substance?
**A.** 16%

**Q.** What about the “share of cancer deaths that were lung cancers” value (among those assigned to canakinumab (placebo 47%)) of the same substance?
**A.** 34%
